Source: patent publication US9873883B2, “Glyphosate resistant plants and associated methods” (Dow AgroSciences LLC, priority 2012, dated 2018)

Tests used:
[1] = molecular target: T1, Brassica napus (canola) EPSP synthase DGT-3 (GENBANK P17688) variant DGT-3 v6 (G→A) (Brassica napus, UniProt P17688, G173A); assay: In vitro kinetic assay (inorganic phosphate production, malachite green); type: biochemical; conditions: for IC50: IC50 (glyphosate)
T1 construct: made in house; host or cells: E. coli Rosetta2 (DE3)
T1 sequence (P17688 73-516 G173A): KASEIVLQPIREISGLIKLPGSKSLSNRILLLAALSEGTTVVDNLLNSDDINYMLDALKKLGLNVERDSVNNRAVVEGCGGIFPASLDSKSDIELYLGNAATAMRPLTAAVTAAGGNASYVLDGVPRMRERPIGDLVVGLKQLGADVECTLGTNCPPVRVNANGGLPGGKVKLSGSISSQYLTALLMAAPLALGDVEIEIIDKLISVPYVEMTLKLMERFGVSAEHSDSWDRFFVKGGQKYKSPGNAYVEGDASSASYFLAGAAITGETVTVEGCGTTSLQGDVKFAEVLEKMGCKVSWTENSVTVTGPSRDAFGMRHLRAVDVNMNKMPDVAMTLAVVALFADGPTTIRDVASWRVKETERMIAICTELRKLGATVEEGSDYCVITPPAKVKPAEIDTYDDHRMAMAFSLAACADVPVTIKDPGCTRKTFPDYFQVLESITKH
Source text: (§1) The following Class I enzymes: DGT-1 from Glycine max, DGT-3 from Brassica napus (GENBANK ACC NO: P17688), and DGT-7 from Triticum aestivum (GENBANK ACC NO: EU977181) were used as a comparison. The Class I EPSP synthase enzymes and mutant variants thereof were synthesized and evaluated. A mutation introduced into the plant EPSP synthase enzymes consisted of the Glycine to Alanine mutation made within the EPSP synthase enzyme at a similar location as that of the G96A mutation from the E. coli version of the enzyme. In addition, Threonine to Isoleucine and Proline to Serine mutations were introduced within these Class I EPSP synthase enzymes at analogous positions as that of amino acid 97 (T to I) and amino acid 101 (P to S) in the EPSP synthase of E. coli as described in Funke et al., (2009).
(§2) The location of the amino acid residue which was mutated from glycine to alanine is indicated by the first asterisk. The location of the amino acid residue which was mutated from threonine to isoleucine is indicated by the second asterisk. The location of the third amino acid residue which was mutated from proline to serine is indicated by the third asterisk. These mutations were introduced into different versions of DGT-1, DGT-3, and DGT-7. The different versions of the genes which contain the mutations are described in more detail below.
(§3) Additional constructs containing the dgt-1, dgt-3 and dgt-7 were synthesized. These constructs were used for in vitro testing of the dgt-1 v5, dgt-1 v6, dgt-1 v7, dgt-1 v8, dgt-3 v6, dgt-3 v7, dgt-3 v8, dgt-7 v5, dgt-7 v6, dgt-7 v7, and dgt-7 v8 gene sequences were outsourced to GeneArt for synthesis and cloning. The synthesized genes were cloned into the pET28 expression vector. The resulting constructions were labeled as pDAB102028 containing dgt-1 v5, pDAB102029 containing dgt-1 v6, pDAB102032 containing dgt-1 v7, pDAB102034 containing dgt-1 v8, pDAB100429 containing dgt-3 v6, pDAB100442 containing dgt-3 v7, pDAB100430 containing dgt-3 v8, pDAB102036 containing dgt-7 v5, pDAB102038 containing dgt-7 v6, pDAB102040 containing dgt-7 v7, and pDAB102042 containing dgt-7 v8.
(§4) Recombinant DGT proteins were overexpressed in Rosetta2™ (DE3) cells (Novagen, Madison, Wis.) from the constructs described above. A single colony was used to inoculate 50 mL starter cultures of LB containing chloramphenicol (25 μg/mL) and kanamycin (50 μg/mL) which were cultivated overnight at 37° C. The overnight cultures were used to inoculate 1 L of LB containing chloramphenicol (25 μg/mL) and kanamycin (50 μg/mL). The cultures were grown at 37° C. to an O.D.600=0.6 then placed in an ice water bath for 10 minutes. Expression of the target proteins was achieved by addition of IPTG to a final concentration of 500 μM. Induction was allowed to proceed overnight at 20° C. followed by harvesting via centrifugation at 8,000 rpm for 20 minutes. The cell pellets were stored at −80° C. until required for purification. All purification steps were carried out at 4° C.
(§5) Cell pellets from 1 L cultures were resuspended in 20-30 mL Buffer A (50 mM HEPES pH 7.5, 150 mM KCl, 2 mM DTT, 1 mM EDTA, 20 mM imidazole, and 5% glycerol). COMPLETE™ protease inhibitor cocktail (1 tablet/50 mL, Roche, Indianapolis, Ind.) and lysozyme (1 mg/mL, Sigma-Aldrich, St. Louis, Mo.) were then added and the suspension was stirred for 20 minutes. Cell lysis was performed using a Branson Sonifier 250 (3×60 second bursts) followed by removal of the cell debris by centrifugation at 16,000 rpm for 45 minutes. DGT enzymes were purified to homogeneity in one step via immobilized metal affinity chromatography (IMAC) using a 5 mL HisTrap FF crude column. The column was equilibrated in Buffer A and the sample was loaded in the same buffer. The column was then washed with 10 column volumes of Buffer A followed by elution in a 0-100% Buffer B (50 mM HEPES pH 7.5, 200 mM KCl, 2 mM DTT, 1 mM EDTA, 500 mM imidazole, and 5% glycerol) linear gradient over 25 column volumes. […]

[2] = molecular target: T2, Glycine max (soybean) EPSP synthase DGT-1 variant DGT-1 v6 (G→A) (Glycine max, UniProt I1J7U9, G182A); assay: as above; type: biochemical; conditions: for IC50: IC50 (glyphosate)
T2 sequence (I1J7U9 with tags, fused parts or gaps G182A): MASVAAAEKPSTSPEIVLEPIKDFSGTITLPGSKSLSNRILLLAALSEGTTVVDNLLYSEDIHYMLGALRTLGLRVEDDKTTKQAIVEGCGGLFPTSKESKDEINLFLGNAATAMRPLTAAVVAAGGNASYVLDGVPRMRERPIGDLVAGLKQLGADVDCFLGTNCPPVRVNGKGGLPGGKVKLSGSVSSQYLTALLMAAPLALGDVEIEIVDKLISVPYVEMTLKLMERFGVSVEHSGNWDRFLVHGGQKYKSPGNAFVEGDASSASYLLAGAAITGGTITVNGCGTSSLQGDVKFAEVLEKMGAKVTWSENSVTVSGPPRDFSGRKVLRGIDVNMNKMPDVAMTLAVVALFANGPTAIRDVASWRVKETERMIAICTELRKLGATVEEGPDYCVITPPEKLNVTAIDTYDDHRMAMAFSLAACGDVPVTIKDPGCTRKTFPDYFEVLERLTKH
Source text: as §1, §2, §3, §4, §5

SMILES	increase of Km for PEP ([1]; G to A mutation vs un-mutated) [fold]	increase of Km for PEP ([2]; G to A mutation vs un-mutated) [fold]	IC50 ([1]; at 60 μM PEP) [mM]	IC50 ([1]; at 1 mM PEP) [mM]	IC50 ([2]; at 60 μM PEP) [mM]	IC50 ([2]; at 1 mM PEP) [mM]
C=C(OP(=O)(O)O)C(=O)O [PEP, phosphoenolpyruvate]	~8	~8	–	–	–	–
O=C(O)CNCP(=O)(O)O [glyphosate, N-(phosphonomethyl)glycine]	–	–	8.7	15.8	17.3	21.1
